What follows are compounds tested on HSV-1 (assay: HSV-1 replication in infected Vero 76 cells, viral DNA detected by hybridization capture). Conditions: Human alphaherpesvirus 1; HSV-1, Vero 76 cells, MOI=0.001, 40-48 hours incubation.
Assay type: cell-based, herpes simplex virus 1
Method: Vero 76 cells were maintained in MEM with Earle's salts, L-glutamine, 8% FBS (Hyclone, A-1111-L) and 100 units/mL Penicillin-100 μg/mL Streptomycin. For assay conditions, FBS was reduced to 2%. Cells are seeded into 96-well tissue culture plates at a density of 5×10^4 cells/well after being incubated for 45 min at 37° C. in the presence of HSV-1 or HSV-2 (MOI=0.001). Test compounds are added to the wells and the plates are incubated at 37° C. for 40-48 hours. Cell lysates are prepared as follows: media was removed and replaced with 150 μL/well 0.2 N NaOH with 1% Igepal CA 630 or NP-40. Plates were incubated up to 14 days at room temperature in a humidified chamber to prevent evaporation.
For the detection probe, a gel-purified, digoxigenin-labeled, 710-bp PCR fragment of the HSV UL-15 sequence was utilized. PCR conditions included 0.5 μM primers, 180 μM dTTP, 20 μM dUTP-digoxigenin (Boehringer Mannheim 1558706), 200 μM each of dATP, dCTP, and dGTP, 1× PCR Buffer II (Perkin Elmer), 2.5 mM MgCl2, 0.025 units/μL of AmpliTaq Gold polymerase (Perkin Elmer), and 5 ng of gel-purified HSV DNA per 100 μL Extension conditions were 10 min at 95° C., followed by 30 cycles of 95° C. for 1 min. 55° C. for 30 sec. and 72° C. for 2 min. The amplification was completed with a 10-min incubation at 72° C. […] Single-stranded transcripts were purified with Promega M13 Wizard kits. The final product was mixed 1:1 with a mixture of 6 M GuSCN, 100 mM EDTA and 200 μg/mL herring sperm DNA and stored at 4° C.
The capture DNA plasmid (HSV UL13 region in pUC) was linearized by cutting with Xbal, denatured for 15 min at 95° C. and diluted immediately into Reacti-Bind DNA Coating Solution (Pierce, 17250, diluted 1:1 with TE buffer, pH 8) at 1 ng/μL. 75 μL/well were added to Corning (#3922 or 9690) white 96-well plates and incubated at room temperature for at least 4 hrs before washing twice with 300 μL/well 0.2×SSC/0.05% Tween-20 (SSC/T buffer). The plates were then incubated overnight at room temperature with 150 μL/well 0.2 N NaOH, 1% IGEPAL and 10 μg/mL herring sperm DNA.
Twenty-seven (27) μL of cell lysate was combined with 45 μL of hybridization solution (final concentration: 3M GuSCN, 50 mM EDTA, 100 μg/ml salmon sperm DNA, 5× Denhardt's solution, 0.25×APE, and 5 ng of the digoxigenin-labeled detection probe). APE is 1.5 M NH4-acetate, 0.15 M ammonium phosphate monobasic, and 5 mM EDTA adjusted to pH 6.0. Mineral oil (50 μL) was added to prevent evaporation. The hybridization plates were incubated at 95° C. for 10 minutes to denature the DNA, then incubated at 42° C. overnight. The wells were washed 6× with 300 μL/well SSC/T buffer then incubated with 75 μL/well anti-digoxigenin- HRP-conjugated antibody (Boehringer Mannheim 1207733, 1:5000 in TE) for 30 min at room temperature. The wells were washed 6× with 300 μL/well with PBS/0.05% Tween-20 before 75 μL/well SuperSignal LBA substrate (Pierce) was added. The plates were incubated at room temperature for 30 minutes and chemiluminescence was measured in a Wallac Victor reader.
The following results were obtained for HSV-1.

Structure (SMILES)	IC50 [nM]
Cc1cc(NC2CCCC2)cc2c(-c3ccnc(NC4CCCC4)n3)c(-c3ccc(F)cc3)nn12 [Example 3, N-Cyclopentyl-3-[2-(cyclopentylamino)-4-pyrimidinyl]-2-(4-fluorophenyl)-7-methylpyrazolo[1,5-α]pyridin-5-amine]	322
CC(C)Sc1cc(NC2CCCC2)cc2c(-c3ccnc(NC4CCCC4)n3)c(-c3ccc(F)cc3)nn12 [Example 13, N-Cyclopentyl-3-[2-(cyclopentylamino)-4-pyrimidinyl]-2-(4-fluorophenyl)-7-(isopropylsulfanyl)pyrazolo[1,5-α]pyridin-5-amine]	260
CCOc1cc(NC2CCCC2)cc2c(-c3ccnc(NC4CCCC4)n3)c(-c3ccc(F)cc3)nn12 [Example 4, N-Cyclopentyl-3-[2-(cyclopentylamino)-4-pyrimidinyl]-7-ethoxy-2-(4-fluorophenyl)pyrazolo[1,5-α]pyridin-5-amine]	160
COCCOc1cc(NC2CCCC2)cc2c(-c3ccnc(NC4CCCC4)n3)c(-c3ccc(F)cc3)nn12 [Example 6, N-Cyclopentyl-3-[2-(cyclopentylamino)-4-pyrimidinyl]-2-(4-fluorophenyl)-7-(2-methoxyethoxy)pyrazolo[1,5-α]pyridin-5-amine]	82
COc1ccc(-c2nn3c(Sc4ccccc4)cc(NC4CCCC4)cc3c2-c2ccnc(NC3CCCC3)n2)cc1 [Example 12, N-Cyclopentyl-3-[2-(cyclopentylamino)-4-pyrimidinyl]-2-(4-methoxyphenyl)-7-(phenylsulfanyl)pyrazolo[1,5-α]pyridin-5-amine]	2000
COc1ccc(-c2nn3c(SC)cc(NC4CCCC4)cc3c2-c2ccnc(NC3CCCC3)n2)cc1 [Example 9, N-Cyclopentyl-3-[2-(cyclopentylamino)-4-pyrimidinyl]-2-(4-methoxyphenyl)-7-(methylsulfanyl)pyrazolo[1,5-α]pyridin-5-amine]	135
CSc1cc(NC2CCCC2)cc2c(-c3ccnc(NC4CCCC4)n3)c(-c3ccc(F)cc3)nn12 [Example 5, N-Cyclopentyl-3-[2-(cyclopentylamino)-4-pyrimidinyl]-2-(4-fluorophenyl)-7-(methylsulfanyl)pyrazolo[1,5-α]pyridin-5-amine]	130
CCSc1cc(NC2CCCC2)cc2c(-c3ccnc(NC4CCCC4)n3)c(-c3ccc(F)cc3)nn12 [Example 2, N-Cyclopentyl-3-[2-(cyclopentylamino)-4-pyrimidinyl]-7-(ethylsulfanyl)-2-(4-fluorophenyl)pyrazolo[1,5-δ]pyridin-5-amine]	74
COc1ccc(-c2nn3c(SC(C)C)cc(NC4CCCC4)cc3c2-c2ccnc(NC3CCCC3)n2)cc1 [Example 11, N-Cyclopentyl-3-[2-(cyclopentylamino)-4-pyrimidinyl]-7-(isopropylsulfanyl)-2-(4-methoxyphenyl)pyrazolo[1,5-α]pyridin-5-amine]	175
CCSc1cc(NC2CCCC2)cc2c(-c3ccnc(NC4CCCC4)n3)c(-c3ccc(OC)cc3)nn12 [Example 10, N-Cyclopentyl-3-[2-(cyclopentylamino)-4-pyrimidinyl]-7-(ethylsulfanyl)-2-(4-methoxyphenyl)pyrazolo[1,5-α]pyridin-5-amine]	46
